Reference: PubChem BioAssay (NCI)
Where “and” joins values, the source holds several entries; their conditions need not be identical. Equal entries are not always repeated.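 Method: 48-hour compound exposure of cells in 96-well plates, five concentrations, linear interpolation of endpoints. GI50 = concentration required for 50% inhibition of growth. TGI is the concentration that stops growth completely.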

What was measured:
Assay in all cases: inhibition of tumour cell growth, NCI panel, 48 h
UACC-62 melanoma = test system: UACC-62 melanoma
SNB-75 CNS = test system: SNB-75 CNS
SF-268 CNS = test system: SF-268 CNS
NCI-H522 lung = test system: NCI-H522 lung
UACC-257 melanoma = test system: UACC-257 melanoma
CAKI-1 renal = test system: CAKI-1 renal
MDA-MB-231 breast = test system: MDA-MB-231 breast
HCT-15 colon = test system: HCT-15 colon
MALME-3M melanoma = test system: MALME-3M melanoma
BT-549 breast = test system: BT-549 breast

SMILES | GI50 (UACC-62 melanoma) | TGI (UACC-62 melanoma) [µM] | GI50 (SNB-75 CNS) | TGI (SNB-75 CNS) | GI50 (SF-268 CNS) | TGI (SF-268 CNS) [µM] | GI50 (NCI-H522 lung) | TGI (NCI-H522 lung) | GI50 (UACC-257 melanoma) | TGI (UACC-257 melanoma) | GI50 (CAKI-1 renal) | TGI (CAKI-1 renal) [µM] | GI50 (MDA-MB-231 breast) | TGI (MDA-MB-231 breast) [µM] | GI50 (HCT-15 colon) | TGI (HCT-15 colon) [µM] | GI50 (MALME-3M melanoma) | TGI (MALME-3M melanoma) | GI50 (BT-549 breast) | TGI (BT-549 breast) [µM]
O=S(=O)(NCCCNc1nccc(-c2c(-c3ccc(O)cc3)nc3sccn23)n1)c1ccc(F)cc1 | 0.0245 µM | 1.33 | 1.03 µM | 7.91 µM | 2.94 µM | 14.7 | 1.83 µM | 6.27 µM | 0.134 µM | 2.36 µM | 2.88 µM | > 100 | 1.82 µM | > 100 | 2.61 µM | 10 | 0.0391 µM | 3.56 µM | 2.36 µM | 10.4
Cc1cccc(N(C)C(=O)[C@@H]2[C@H](O)CCN2c2nc(C)cc(C(F)(F)F)c2C#N)c1 | 21.9 µM | 74.5 | 31.4 µM | > 100 µM | 26.5 µM | > 100 | 10.7 µM | 32 µM | 28.3 µM | > 100 µM | 29.1 µM | > 100 | 19.3 µM | 46 | 27.9 µM | > 100 | 19.9 µM | 59 µM | 15.6 µM | 45.2
Nc1nccc(-c2c(-c3ccc(F)cc3)ncn2C2CCNCC2)n1 | 11.1 µM and 4.61 µM | > 25 | 2.91 µM and 1.17 µM | > 23.4 µM and 12.7 µM | 5.92 µM and 2.76 µM | > 25 | 6.98 µM and 2.04 µM | > 25 µM and 7.22 µM | 10.2 µM and 3.45 µM | > 25 µM and 17.6 µM | > 25 µM and 7.29 µM | > 25 | > 25 µM and 3.97 µM | > 25 | > 25 µM and 6.43 µM | > 25 | 8.72 µM and 5.23 µM | > 25 µM and 21.4 µM | 17.2 µM and 12 µM | > 25
Cc1nc2ccc(Nc3nc(Cl)nc(N4CCOCC4)n3)cc2n1Cc1ccccc1 | 3.43 µM | 22.9 | 4.47 µM | 29.6 µM | 3.11 µM | > 100 | 2.98 µM | 20.8 µM | 5.93 µM | > 100 µM | 20.2 µM | > 100 | 2.22 µM | 9.44 | 2.94 µM | 14.1 | 5.24 µM | 24.5 µM | 2.89 µM | 29.4
CC(C)C1=CC(=O)C(C)(C2C(O)CC3(C)C4CC=C5C(CCC(OC6OC(CO)C(O)C(O)C6OC6OC(C)C(O)C(O)C6O)C5(C)C)C4(C)C(=O)CC23C)O1 (stereo not given) |  | > 100 |  | > 100 µM |  | > 100 |  | > 100 µM |  | > 100 µM |  | > 100 |  | > 100 |  | > 100 |  | > 100 µM |  | > 100
CCN(CCCN(C)C)Cc1cc(I)cc(C)c1O | 16.4 µM | 37.1 | 16.1 µM | 39.7 µM | 18.7 µM | 45.7 | 18.7 µM | 36.4 µM | 16.3 µM | 32.5 µM | 18.5 µM | 39.3 | 26.8 µM | 91 | 21.5 µM | 49.4 | 19.8 µM | 36.8 µM | 12.7 µM | 27.9
NS(=O)(=O)c1ccc(Nc2cc(-c3cccc(O)c3)[nH]n2)cc1 | > 24.2 µM | > 25 | 24.5 µM | > 25 µM | > 25 µM | > 25 | 22.6 µM | > 25 µM | > 25 µM | > 25 µM | > 25 µM | > 25 | 18 µM | > 25 | > 25 µM | > 25 | > 25 µM | > 25 µM | > 24.1 µM | > 25
CCOC(=O)c1ccc(NC(=O)Nc2nncs2)cc1 | 0.0761 µM | 26.4 | 0.0832 µM | 19.3 µM | 0.952 µM | 22.9 | 0.0746 µM | 1.87 µM | 1.43 µM | > 85.1 µM | 0.427 µM | > 47 | 0.532 µM | 6.35 | 0.0688 µM | > 100 | 0.132 µM | 36.1 µM | 0.735 µM | 13.3
Fc1cccc(COc2ccc(Nc3ncnc4sc(-c5cccs5)cc34)cc2Cl)c1 | 1.59 µM | 5.71 | 4.17 µM | 10 µM | 11.4 µM | > 22.8 | 7.55 µM | > 22.4 µM | 1.42 µM | > 14 µM | > 9.71 µM | > 25 | 5.73 µM | 16.4 | 9.11 µM | > 25 | 3.52 µM | 10.1 µM | 6.25 µM | 15.6
CC(C)(Br)C(=O)N1CCN(C(c2ccccc2)c2ccccc2)CC1 |  | > 100 |  | > 100 µM |  | > 100 |  | > 100 µM |  | > 100 µM |  | > 100 |  | > 100 |  | > 100 |  | > 100 µM |  | > 100
Cc1cc2nc3c4cc(O)ccc4n(CCN(C)C)c3nc2cc1C | 0.729 µM | 2.6 | 0.229 µM | 2.92 µM | 1.25 µM | 5.89 | 0.541 µM | 3.32 µM | 2.06 µM | 5.2 µM | 0.337 µM | 2.11 | 0.898 µM | 5.71 | 0.611 µM | 4.1 | 1.14 µM | 2.41 µM | 2.03 µM | 6.27
